Patent US7781420B2, “Use of clodronic acid for treatment podotrochlosis” (Omnimedic GbR, priority 2005, dated 2010)

How the values were obtained:
[1] = system: horses who suffer from podotrochlosis; assay: treatment of podotrochlosis with associated osteoporosis in horses by two to five intramuscular injections; type: in vivo, horse; conditions: for therapeutic success in the treatment of podotrochlosis with associated osteoporosis: intramuscular injections
Procedure: To achieve the desired therapeutic success or else prophylactic success, a dosage regimen in which the pharmaceutical is administered by two to five intramuscular injections within a period of up to several days, such as approximately 3 consecutive days, but preferably within one day, must be adhered to. Here, the administration of the pharmaceutical may be effected in a dosage of, per injection, 0.125-2.5 mg, preferably 0.25-1 mg, particularly preferably approximately 0.6 mg of active ingredient/kg body weight. For a horse with a weight of 500 kg, a total dose of 250-2500 mg, preferably 400-1500 mg, especially preferably approximately 800 to 1000 mg of active ingredient, distributed over 2 to 5 injections, preferably 3 injections, is aimed at. With a horse with a weight of 500 kg, it is therefore especially preferable to administer 900 mg of active ingredient, divided over 3 injections of 300 mg each, within one day. The pharmaceutical is injected intramuscularly, preferably into the neck, chest and gluteal muscles of the horse. In the case of 3 injections, it is preferred to administer two injections into the neck muscles (on the left and right side), especially preferably approximately one hand's width under the crest and approximately one hand's width above the scapula, and one injection into the breast muscles. The 2 to 5 injections are expediently given directly one after the other.
After approximately 14 days, a pronounced improvement of the clinical symptoms is observed in nearly all horses. After approximately 4-6 weeks, the clinical picture has stabilized and established such that the therapeutic success can be defined. After approximately 10 to 14 months, the clinical symptoms will, as a rule, deteriorate. The treatment may then be repeated once or more than once, with equally good success. In this manner, the treated horses can be kept free from lameness over several years.
For example, the therapeutic success in a gelding who had suffered from podotrochlosis and who had not been able to be ridden, let alone used as a sports horses for about 3 years was so good after employing the pharmaceutical described in accordance with the invention that the gelding could afterwards be used intensively and successfully for 6 years as a showjumper.

podotrochlosis = conditions: in vivo; cited from earlier work

Row | Compound | side effects ([1]; at least 350 horses pretreated with conventional therapies without success) | time until pronounced improvement of the clinical symptoms is observed in nearly all horses ([1]; horses, after treatment) | time until the clinical picture has stabilized and established ([1]; horses, after treatment) | therapeutic success in the treatment of podotrochlosis with associated osteoporosis ([1]; horses) | therapeutic success in the treatment of podotrochlosis with associated osteoporosis ([1]; horses, listed as pharmaceutical described in accordance with the invention) | freedom from lameness ([1]; many of the treated horses, regular use of the pharmaceutical) | time used intensively and successfully as a showjumper after treatment ([1]; single gelding, not able to be ridden for about 3 years before treatment) [years] | effect on podotrochlosis (podotrochlosis) | side effects (podotrochlosis)
1 | O=P(O)(O)C(Cl)(Cl)P(=O)(O)O [clodronic acid, (dichloromethylene)bis(phosphonic acid)] | without suffering side effects | approximately 14 days | 4-6 weeks | outstanding therapeutic successes | successful therapy | free from lameness for several years | 6 | – | –
2 | O=P(O)(O)C(Sc1ccc(Cl)cc1)P(=O)(O)O [tiludronate] | – | – | – | – | – | – | – | healing effect | substantial side effects such as colic
